Laboratory results taken from patent US4268630A, “Microbiological production of ketones from C3 -C6 alkanes” (priority 1979, dated 1981).
Entries after “also recorded” stand apart in the source; their conditions may differ.

What was measured:
[1] = tested on: cell suspensions of C1-utilizers; assay: Production of 2-butanone from 2-butanol / sec-alcohol oxidation by cell suspensions of the strains tested; assay type: cell-based; conditions: cell suspensions of C1-utilizers
Source text: The substrate specificity for the oxidation of C3 -C6 secondary alcohols by the strains of C1 -utilizers was studied.

[2] = tested on: Pseudomonas sp. ATCC 21438; assay: Oxidation of sec-alcohols to ketones by resting cell suspension; assay type: cell-based
Protocol: (§1) The pH of the nutrient medium was adjusted to 7.0 by the addition of acid or base and 50 ml. samples of the nutrient medium were charged into a plurality of 300 ml. shaker flasks. The shaker flasks were inoculated with an inoculating loop of cells from an agar plate containing homogeneous colonies of the microorganisms on the plate (the purity of the isolates was confirmed by microscopic examination). The isolates had been maintained on methanol (0.4% V/V) agar plates or on agar plates under an atmosphere of methane and air having a 1:1 V/V gas ratio which had been transferred every two weeks. For growth on methanol, the medium was supplemented with 0.4% methanol. For growth on methane, the gaseous phase of the inoculated flasks was replaced with a gas mixture comprised on methane and air having a ratio of 1:1 on a V/V basis. The inoculated flasks were sealed air-tight and were incubated on a rotary shaker of orbital radius 2.5 cm. at 250 rpm and at 30° C. for two days until turbidity in the medium had developed. The cells were harvested by centrifugation at 10,000×g. at 4° C. for 30 minutes. The cell pellet was washed twice with a 0.05 M phosphate buffer at a pH of 7.0 (containing 0.02 M MgCl2). The washed cells were then suspended in a 0.05 M phosphate buffer at pH 7.0.
(§2) A 0.5 ml. sample of each washed cell suspension (2 mg. cells) was put into 10 ml. vials at 4° C. which were sealed with a rubber cap. The gaseous phase of the vials was removed with vacuum and then was replaced with a gas mixture of the substrate reactant (i.e., alkane or secondary alcohol) and oxygen at a 1:1 V/V ratio. (In the case of a liquid substrate, i.e., secondary alcohol, 10 μl of the substrate was put in the 10 ml. vials). […] Samples of product (1-3 μl) were withdrawn periodically with a microsyringe and the products were analyzed by gas chromatography (ionization flame detector column).
(§3) The procedure in Example 1 was repeated except that a plurality of methanol-utilizing methylotrophic microorganisms were each aerobically grown in a methanol-containing nutrient medium instead of a methane-containing medium. The nutrients in the medium were the same as indicated in Example 1 except that 0.4% V/V methanol was used as the alcohol dehydrogenase inducer and as the major carbon and energy source for growth. The cells were harvested and washed as described in Example 1. The resting microbial cells of the induced methanol-grown methanol-utilizing methylotrophic microorganisms were then contacted with C3 -C6 secondary alcohols in a buffered solution by the procedure of Example 1.
(§4) The procedure in Example 1 was repeated except that the methylotrophic microorganisms were each aerobically grown in an alcohol dehydrogenase-inducing growth medium containing methylamine or methyl formate as the alcohol dehydrogenase enzyme inducer and growth substrate instead of methane. The nutrients in the medium were the same as indicated in Example 1 except that 0.4% V/V of the alcohol dehydrogenase-inducer growth substrate was used as the major carbon and energy source. The cells were harvested and washed as described in Example 1. The resting microbial cells were then contacted with C3 -C6 secondary alcohols in a buffered solution by the conversion procedure of Example 1.

[3] = tested on: Methanomonas methylovora ATCC 21852; assay: as above; assay type: cell-based
Protocol: as §1, §2, §3, §4

[4] = tested on: cell extracts of Pichia sp. NRRL Y-11,328; assay: NAD+-dependent oxidation of secondary alcohols by cell extracts of yeasts; assay type: biochemical; conditions: grown on methanol, gas chromatography
[5] = tested on: Pichia sp. NRRL-Y-11328; assay: Oxidation of sec-alcohols to ketones by cell suspensions of yeasts; assay type: cell-based
[6] = tested on: Torulopsis sp. Strain A1 (NRRL Y-11,419); assay: as above; assay type: cell-based
[7] = tested on: Kloeckera sp. Strain A2 (NRRL Y-11,420); assay: as above; assay type: cell-based
[8] = tested on: Methylosinus sporium 5 (NRRL B-11,197); assay: Oxidation of sec-alcohols to ketones by resting cell suspension; assay type: cell-based
Protocol: as §1, §2
(§5) The procedure in Example 1 was repeated wherein a plurality of the methane-utilizing methylotrophic microorganisms were each grown aerobically in a nutrient medium containing methane as the alcohol dehydrogenase enzyme inducer and as the major carbon and energy source for growth. The cells were harvested and washed as described in Example 1. The resting microbial cells of the induced methane-grown methane-utilizing methylotrophic microorganisms were then contacted with C3 -C6 secondary alcohols in a buffered solution by the procedure of Example 1.
(§6) In this example, the procedure in Example 1 was repeated except that a plurality of methane-utilizing methylotrophic microorganisms were each aerobically grown in a methanol-containing nutrient medium instead of a methane-containing medium. The nutrients in the medium were the same as indicated in Example 1 except that 0.4% V/V methanol was used as the alcohol dehydrogenase inducer and major source of carbon and energy for growth. Following growth, the cells were harvested and washed as described in Example 1. The resting cells of the induced methanol-grown methylotrophic microorganisms were then contacted with secondary alcohols in a buffered solution by the procedure described in Example 1.

[9] = tested on: Methylomonas albus BG8 (NRRL B-11,200); assay: as above; assay type: cell-based
Protocol: as §1, §2, §5, §6

Structure (SMILES) | substrate specificity: rate of oxidation of secondary alcohols (in words) [1] | Conversion Rates, sec-alcohol to methyl ketone ([2]; methanol-grown, facultative) | Conversion Rates, sec-alcohol to methyl ketone ([2]; methyl formate-grown) | Conversion Rates, sec-alcohol to methyl ketone ([2]; methylamine-grown) | Conversion Rates, sec-alcohol to methyl ketone ([3]; methanol-grown, obligate) | Conversion Rates, sec-alcohol to methyl ketone ([3]; methyl formate-grown) | Conversion Rates, sec-alcohol to methyl ketone ([3]; methylamine-grown) | Conversion Rate, secondary alcohol to methylketone [4] | Conversion Rate, sec-alcohol to ketone ([5]; growth substrate Ethanol) | Conversion Rate, sec-alcohol to ketone ([5]; growth substrate Methanol) | Conversion Rate, sec-alcohol to ketone ([5]; growth substrate Methylamine) | Conversion Rate, sec-alcohol to ketone ([5]; growth substrate Methylformate) | Conversion Rate, sec-alcohol to ketone ([5]; growth substrate Propylamine) | Conversion Rate, sec-alcohol to ketone ([6]; growth substrate Ethanol) | Conversion Rate, sec-alcohol to ketone ([6]; growth substrate Methanol) | Conversion Rate, sec-alcohol to ketone ([6]; growth substrate Methylamine) | Conversion Rate, sec-alcohol to ketone ([6]; growth substrate Methylformate) | Conversion Rate, sec-alcohol to ketone ([6]; growth substrate Propylamine) | Conversion Rate, sec-alcohol to ketone ([7]; growth substrate Ethanol) | Conversion Rate, sec-alcohol to ketone ([7]; growth substrate Methanol) | other results
CCC(C)O (stereo not shown) [2-Butanol, 2-butanol] | oxidized at the highest rate; also recorded: oxidized at higher rates | 3.2 μmoles/hr/mg protein | 3.2 μmoles/hr/mg protein | 2.1 μmoles/hr/mg protein | 2.5 μmoles/hr/mg protein | 2.1 μmoles/hr/mg protein | 3.2 μmoles/hr/mg protein | 6.2 μmoles/hr/mg Protein | 6.2 μmoles/hr/mg of protein | 6.8 μmoles/hr/mg of protein | 5.1 μmoles/hr/mg of protein | 6.9 μmoles/hr/mg of protein | 2.1 μmoles/hr/mg of protein | 4.7 μmoles/hr/mg of protein | 4.9 μmoles/hr/mg of protein | 4.5 μmoles/hr/mg of protein | 4.9 μmoles/hr/mg of protein | 3.8 μmoles/hr/mg of protein | 5.7 μmoles/hr/mg of protein | 5.9 μmoles/hr/mg of protein | Conversion Rate, sec-alcohol to ketone ([7]; growth substrate Methylamine): 5.4 μmoles/hr/mg of protein; Conversion Rate, sec-alcohol to ketone ([7]; growth substrate Methylformate): 5.9 μmoles/hr/mg of protein; Conversion Rate, sec-alcohol to ketone ([7]; growth substrate Propylamine): 4.2 μmoles/hr/mg of protein; Conversion Rates, sec-alcohol to methyl ketone ([8]; cells grown on methanol): 3.5 μmoles/hr/mg protein; Conversion Rates, sec-alcohol to methyl ketone ([8]; resting cells grown on methane): 3.0 μmoles/hr/mg protein; Conversion Rates, sec-alcohol to methyl ketone ([9]; cells grown on methanol): 3.0 μmoles/hr/mg protein; Conversion Rates, sec-alcohol to methyl ketone ([9]; resting cells grown on methane): 3.5 μmoles/hr/mg protein
CCCC(C)O (stereo not shown) [2-Pentanol, 2-pentanol] | oxidized at a much slower rate | 2.7 μmoles/hr/mg protein | 2.0 μmoles/hr/mg protein | 0.82 μmoles/hr/mg protein | 2.1 μmoles/hr/mg protein | 1.5 μmoles/hr/mg protein | 1.0 μmoles/hr/mg protein | 1.2 μmoles/hr/mg Protein | 1.0 μmoles/hr/mg of protein | 1.2 μmoles/hr/mg of protein | 0.72 μmoles/hr/mg of protein | 0.98 μmoles/hr/mg of protein | 0.60 μmoles/hr/mg of protein | 1.2 μmoles/hr/mg of protein | 1.0 μmoles/hr/mg of protein | 0.9 μmoles/hr/mg of protein | 1.1 μmoles/hr/mg of protein | 0.62 μmoles/hr/mg of protein | 1.0 μmoles/hr/mg of protein | 1.2 μmoles/hr/mg of protein | Conversion Rate, sec-alcohol to ketone ([7]; growth substrate Methylamine): 1.0 μmoles/hr/mg of protein; Conversion Rate, sec-alcohol to ketone ([7]; growth substrate Methylformate): 1.2 μmoles/hr/mg of protein; Conversion Rate, sec-alcohol to ketone ([7]; growth substrate Propylamine): 0.92 μmoles/hr/mg of protein
CCCCC(C)O (stereo not shown) [2-Hexanol, 2-hexanol] | oxidized at a much slower rate | 0.7 μmoles/hr/mg protein | 0.80 μmoles/hr/mg protein | 0.07 μmoles/hr/mg protein | 1.0 μmoles/hr/mg protein | 0.60 μmoles/hr/mg protein | 0.09 μmoles/hr/mg protein | 0.60 μmoles/hr/mg Protein | 0.28 μmoles/hr/mg of protein | 0.50 μmoles/hr/mg of protein | 0.31 μmoles/hr/mg of protein | 0.48 μmoles/hr/mg of protein | 0.21 μmoles/hr/mg of protein | 0.20 μmoles/hr/mg of protein | 0.21 μmoles/hr/mg of protein | 0.12 μmoles/hr/mg of protein | 0.25 μmoles/hr/mg of protein | 0.10 μmoles/hr/mg of protein | 0.12 μmoles/hr/mg of protein | 0.25 μmoles/hr/mg of protein | Conversion Rate, sec-alcohol to ketone ([7]; growth substrate Methylamine): 0.10 μmoles/hr/mg of protein; Conversion Rate, sec-alcohol to ketone ([7]; growth substrate Methylformate): 0.28 μmoles/hr/mg of protein; Conversion Rate, sec-alcohol to ketone ([7]; growth substrate Propylamine): 0.11 μmoles/hr/mg of protein
CC(C)O [2-Propanol, 2-propanol] | oxidized at higher rates | 0.45 μmoles/hr/mg protein | 0.52 μmoles/hr/mg protein | 1.0 μmoles/hr/mg protein | 0.28 μmoles/hr/mg protein | 0.62 μmoles/hr/mg protein | 0.82 μmoles/hr/mg protein | 5.5 μmoles/hr/mg Protein | 4.5 μmoles/hr/mg of protein | 5.2 μmoles/hr/mg of protein | 4.2 μmoles/hr/mg of protein | 4.9 μmoles/hr/mg of protein | 3.2 μmoles/hr/mg of protein | 4.2 μmoles/hr/mg of protein | 4.5 μmoles/hr/mg of protein | 4.3 μmoles/hr/mg of protein | 4.5 μmoles/hr/mg of protein | 3.2 μmoles/hr/mg of protein | 4.5 μmoles/hr/mg of protein | 4.8 μmoles/hr/mg of protein | Conversion Rate, sec-alcohol to ketone ([7]; growth substrate Methylamine): 4.0 μmoles/hr/mg of protein; Conversion Rate, sec-alcohol to ketone ([7]; growth substrate Methylformate): 4.9 μmoles/hr/mg of protein; Conversion Rate, sec-alcohol to ketone ([7]; growth substrate Propylamine): 4.0 μmoles/hr/mg of protein; Conversion Rates, sec-alcohol to methyl ketone ([8]; cells grown on methanol): 0.45 μmoles/hr/mg protein; Conversion Rates, sec-alcohol to methyl ketone ([8]; resting cells grown on methane): 0.30 μmoles/hr/mg protein; Conversion Rates, sec-alcohol to methyl ketone ([9]; cells grown on methanol): 1.5 μmoles/hr/mg protein; Conversion Rates, sec-alcohol to methyl ketone ([9]; resting cells grown on methane): 1.3 μmoles/hr/mg protein
